Measured values: the METLIN SMRT retention time set (Domingo-Almenara et al. 2019)

Assay: gradient 5% acetonitrile 3 min, to 50% in 2 min, to 85% in 15 min, held 3 min, 100 µL/min
Conditions: column: Zorbax Extend-C18 2.1 x 50 mm; eluents: water / acetonitrile, 0.1% formic acid
Procedure, shortened: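 Each retention time is based on an adduct peak selected computationally and verified by manual inspection. Measurements used HPLC–quadrupole time-of-flight mass spectrometry in positive and negative ionization mode on mixtures of ~100 pure standards. Chromatography ran on a Zorbax Extend-C18 column (2.1 × 50 mm, 1.8 μm) at 100 μL/min with water and acetonitrile, each containing 0.1% formic acid, and dead and dwell volumes of 40 μL and 900 μL.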

| Compound | RP-LC retention time |
| --- | --- |
| Cc1nc2c(NS(=O)(=O)c3ccc(Cl)cc3)cccn2n1 | 778 s |
| Cc1cccn2c(=O)cc(OCC(=O)Nc3ccc(SC(F)F)cc3)nc12 | 771 s |
| CCOc1ccc(-c2nc(-c3ccc4oc(CC)nc4c3)no2)cc1 | 1280 s |
| Cc1noc(C)c1CC(=O)NCc1cc(-c2ccc3c(c2)OCO3)on1 | 689 s |
| O=C(NCCc1ccccc1)N1C[C@@H]2C[C@H]1C[C@@H]2NS(=O)(=O)c1ccccc1 | 820 s |
| Cc1ccc(C)c(NC(=O)Cn2nc(N3CCCC(C)C3)c3ccccc3c2=O)c1 (centres undefined) | 1160 s |
| COc1cccc(CC(=O)NCC(=O)Nc2nc3ccccc3n2C)c1 | 645 s |
| O=C(c1nnc(-c2ccc(S(=O)(=O)N3CCOCC3)cc2)o1)N1CCc2ccccc2C1 | 917 s |
| CCCCC(=O)Nc1nc(-c2ccc(C)cc2C)cs1 | 1100 s |
| CN1CCN(C(=O)c2csc(N3CCN(c4ccccc4F)CC3)n2)CC1 | 649 s |
| Cc1nc2nc(-c3ccccc3)nn2c(C)c1CC(=O)N1CCCC1 | 679 s |
| COc1ccc(-c2noc(-c3cccn4c(=O)c5ccccc5nc34)n2)cc1OC | 994 s |
| Cc1ccc(-c2ncccc2CNS(=O)(=O)c2ccc(F)c(F)c2)cc1 | 738 s |
| COc1ccccc1-c1csc(NC(=O)c2sc(C)nc2C)n1 | 900 s |
| CCC(C(=O)NCCCN1CCCCC1)n1nc(C)c2sc3ccccc3c2c1=O (centres undefined) | 691 s |
| CC(C)c1ccc(NC(=O)Cn2nc(N3CCCC3)c3ccccc3c2=O)cc1 | 1090 s |
| CC(=O)N1CCc2[nH]c3ccc(C(=O)NC4CCN(Cc5ccccc5)CC4)cc3c2C1 | 585 s |
| CCOC(=O)C(CC)Oc1cc(O)c2c(=O)cc(-c3ccccc3)oc2c1 (centres undefined) | 760 s |
| CCOC(=O)c1c(NC(=O)CSc2nc(=O)n3cccc(C)c3n2)sc2c1CCC2 | 950 s |
| Cc1ccc(NC(=O)C(=O)NCC2CCN(S(C)(=O)=O)CC2)cc1N1CCCC1=O | 627 s |
| O=C(Cn1cnc2ccccc21)NCCOc1cccc2cccnc12 | 527 s |
| CCOc1ccc(S(=O)(=O)NCC2CCN(C(=O)c3cccn(C)c3=O)CC2)cc1C | 657 s |
| O=C(NCCN1CCOCC1)C1CCN(c2ccc3nnc(-c4ccccc4Cl)n3n2)CC1 | 596 s |

| Compound | RP-LC retention time |
| --- | --- |
| COc1ccc(N2CC(c3noc(-c4ccc(OC)cc4C)n3)CC2=O)cc1 (centres undefined) | 992 s |
| CCn1ccc2oc(C)c(C(=O)NCc3cccc(F)c3)c2c1=O | 947 s |
| COc1ccc(-c2nc(NCCCN3CCOCC3)c3ccccc3n2)cc1 | 557 s |
| NS(=O)(=O)c1ccc(CCNCc2ccc(-c3ccc(Cl)cc3Cl)o2)cc1 | 800 s |
| CCOC(=O)c1ccc(N2C=C(C(=O)N3CCCC3)S(=O)(=O)c3ccc(Cl)cc32)cc1 | 950 s |
| O=C(c1cc(F)ccc1F)N1CCN(c2cc(-c3ccc(F)cc3)[nH]n2)CC1 | 807 s |
| CCOC(=O)c1c(S(=O)(=O)N2CC=C(c3ccccc3)CC2)n[nH]c1CC | 927 s |
| Cc1ccc(N2CC(c3noc(-c4ccc(C(C)(C)C)cc4)n3)CC2=O)cc1 (centres undefined) | 1310 s |
| Cc1ccc(S(=O)(=O)N2CCC(c3nc(C(=O)N4CCOCC4)c(C)o3)CC2)cc1 | 824 s |
| Cc1ccc(NC(=O)c2cnc3c(c2)c(=O)n(C)c(=O)n3-c2ccc(F)cc2)cc1 | 936 s |
| NC(=O)c1ccc2c(c1)n(Cc1ccccc1)c(=O)c1ccnn12 | 674 s |
| Cc1ccc(C)c(NC(=O)Cn2cnc(-c3noc(-c4ccncc4)n3)c2)c1 | 687 s |
| CCN1CCC2(CC1)N=C(c1ccc(C)cc1C)CC(c1cc(Cl)ccc1O)N2 (centres undefined) | 668 s |
| CSc1nc2nc3c(cn2n1)C(=O)CC(C)C3 (centres undefined) | 705 s |
| COC(=O)c1cc(OCC(=O)NC2CCCCC2)c2cc(OC)ccc2n1 | 791 s |
| CCc1ccc(-c2noc(Cn3cnc4c(cnn4-c4ccc(OC)cc4)c3=O)n2)cc1 | 1130 s |
| CSc1ccc(-c2nc3ccc(Cl)cn3c2NC2CCCCC2)cc1 | 926 s |
| CSc1cccc(NC(=O)c2nnn(Cc3ccc(F)cc3)c2-n2cccc2)c1 | 1150 s |
| Cc1ccc(NC(=O)C2CCN(S(=O)(=O)c3cc(C(=O)N(C)C)cs3)CC2)cc1C | 835 s |
| Cc1ccc(Nc2c(-c3c(F)cccc3Cl)nc3cccc(C)n23)cc1 | 763 s |
| COc1ccc(Cn2cccc(S(=O)(=O)N3CCCC3)c2=O)cc1F | 843 s |
| COc1ccc(NC(=O)CCCSc2ccc(F)cc2)c([N+](=O)[O-])c1 | 983 s |
| O=c1c2cc(-c3ccc(F)cc3)nn2ccn1Cc1noc(CN2CCCC2)n1 | 638 s |

| Compound | RP-LC retention time |
| --- | --- |
| Cc1ccc(C)n1-c1nnc(N2CCCC(C(=O)NC3CC3)C2)s1 (centres undefined) | 780 s |
| CCOc1cc(-c2nc(C3CC(=O)N(c4ccc(Cl)cc4)C3)no2)cc(OCC)c1OCC (centres undefined) | 1240 s |
| O=C(NCCc1cccs1)c1cc[nH]c1C1CCCNC1 (centres undefined) | 614 s |
| CCn1c(N2CCC(C(=O)NCCCOC)CC2)cc(=O)n(C)c1=O | 610 s |
| CN(C(=O)Cn1cnc2c(-c3ccc(F)cc3)csc2c1=O)c1ccccc1 | 948 s |
| Cc1ccc(C(=O)N2C[C@@H]3C[C@H]2C[C@@H]3NS(=O)(=O)c2cccs2)cc1F | 827 s |
| COc1cccc(NC(=O)N2CCN(c3nc4ccccc4n3C)CC2)c1 | 616 s |
| COc1ccccc1N1CCN(c2ncc(C(=O)O)c(C)n2)CC1 | 750 s |
| COc1cccc(Cn2ccn3nc(-c4ccc(OC)c(OC)c4)cc3c2=O)c1 | 916 s |
| CCCn1cnc2cc(-c3noc(CNC(=O)c4ccccc4)n3)ccc21 | 667 s |
| O=C(NCc1ccccc1F)c1cc(N2CCCC2)n2nccc2n1 | 994 s |
| COc1cccc(-c2csc(-c3nnn(-c4cccc(OC)c4)c3N)n2)c1 | 1110 s |
| CC(C)c1noc(-c2cccnc2N2CCCN(Cc3ccc(F)cc3)CC2)n1 | 712 s |
| CN1C(=O)c2cc(C(=O)NCCc3c[nH]c4ccccc34)nn2CC1(C)C(=O)NC1CCCCC1 (centres undefined) | 806 s |
| O=S(=O)(c1cccc(-c2nc(-c3ccccc3)no2)c1)N1CCCC1 | 1130 s |
| O=C(NCc1ccccn1)C1CCN(c2cc(N3CCCCC3)ncn2)CC1 | 558 s |
| CCn1c(C(=O)N2CCCC(C(=O)NCCc3ccc(S(N)(=O)=O)cc3)C2)cc2sccc21 (centres undefined) | 733 s |
| Cc1nnc(-c2ccc3ccn(CC(=O)NCCc4ccc(S(N)(=O)=O)cc4)c3c2)o1 | 648 s |
| COCCNC(=O)C1CCN(c2nc3ccc(-c4ccccc4F)nc3s2)CC1 | 827 s |
| O=C(Nc1ccccc1F)c1cc(C2CC2)on1 | 655 s |
| CC(C)NC(=O)CN1C(=O)C2CCCCN2c2ccc(C(=O)N3CCCCC3)cc21 (centres undefined) | 735 s |
| O=C(c1ccco1)N1CCC(Oc2nc3ccc(F)cc3s2)CC1 | 902 s |
| Cn1cc2c3c(cccc31)CN(C(=O)c1ccc(F)cc1Cl)CC2 | 958 s |

| Compound | RP-LC retention time |
| --- | --- |
| CN1CCN(C(=O)c2ccc(-c3nnc4ccc(NC(=O)C5CCC5)cn34)cc2)CC1 | 587 s |
| O=C(Nc1ccc(-c2ccc3nnc(-c4ccncc4)n3n2)cc1)c1cccc(Cl)c1 | 675 s |
| O=C(CCc1nc2ccccc2[nH]1)NCC1CCOCC1 | 555 s |
| CCNC(=O)c1cnn(-c2cc(-c3nc(C(C)C)no3)ccn2)c1C | 858 s |
| CCN1C(=O)COc2cc(-c3noc(C(=O)NC4CCCC4)n3)ccc21 | 936 s |
| c1ccc(-c2ccc(C(c3ccccc3)n3ccnc3)cc2)cc1 (centres undefined) | 906 s |
| CCOC(=O)N1CCC2(CC1)N=C(c1ccc(OCC)cc1)CC(c1cc(Cl)ccc1O)N2 (centres undefined) | 726 s |
| Cc1cccc(C)c1Nc1c(-c2ccc(N3CCOCC3)cc2)nc2cnccn12 | 755 s |
| CCOc1cccc(-c2noc(Cn3nc(-c4cccc(OC)c4)ccc3=O)n2)c1 | 1090 s |
| CCC1CN2C=Nc3oc(C)c(C(=O)Nc4ccc(F)c(Cl)c4)c3C2=N1 (centres undefined) | 704 s |
| COc1c(C(=O)NC2CCCC2)sc2ccc(F)cc12 | 1080 s |
| CC(C)(C)NC(=O)N1CC(c2nc(-c3cccnc3)no2)C2(CCOCC2)C1 (centres undefined) | 677 s |
| COc1ccc(NC(=O)C2CC(=O)N(CCc3c[nH]c4ccc(Cl)cc34)C2)c(OC)c1 (centres undefined) | 820 s |
| O=C(c1ccc2ccccc2n1)N1CCC(OCC2CC2)C1 (centres undefined) | 832 s |
| O=C(NC1CCCC1)c1ccc2c(c1)nc1n2CCCCC1 | 600 s |
| Cc1nn(CC(=O)N2CCc3ccccc32)c(=O)c2nn(-c3ccccc3)c(C)c12 | 1050 s |
| CCCN1CCN(CCCNC(=O)c2ccc3c(c2)N(C)C(=O)C2CCCCN32)CC1 (centres undefined) | 597 s |
| CCOC(=O)C1CCN(C(=O)c2nnc(-c3ccc(S(=O)(=O)N4CCCC4)cc3)o2)CC1 | 881 s |
| COCCOC1CCOC2(CCN(C(=O)c3ccsc3)CC2)C1 (centres undefined) | 670 s |
| Cc1ccc(CNC(=O)N2CCN(c3cnn4c(C)nnc4c3)CC2)cc1 | 568 s |
